According to patent US5866587A, “Metalloprotease inhibitors” (Adir Et Compagnie, priority 1996, dated 1999):
Where a name gives a salt, the structure may show the parent alone.

What was measured:
[1] = test system: guinea pig cartilage; experiment: Degradation of the cartilaginous matrix induced by IL-1β: degradation of proteoglycans (35SO4 glycosaminoglycan release); format: cell-based; settings: IL-1β (10 mg/ml), 3 days; for inhibition at 30 µM: Cavia porcellus, 72 h, 3 × 10^-5 M, cartilage labeled with 35SO4, read-out: proteoglycans % protection at 3 × 10^-5M
Description: (§1) The compounds of the invention were studied in a model of destruction of the cartilaginous matrix induced by IL-1β. The trials carried out on guinea pig cartilage relate:
on the other hand, to the degradation of proteoglycans: radioisotopic measurement of the glycosaminoglycan fraction released by the tissue during the 3 days of contact with IL-1β (10 mg/mil), the cartilage having been labeled beforehand with ^35 SO4.
(§2) The compounds of the invention were studied by addition to the culture medium for the 3 days of assay. […] By way of example, the activities exerted by some compounds of the invention are the following: […]

[2] = test system: sections of thoracic aorta from Fischer 344 rats; experiment: Angiogenesis in vitro, formation of pseudovessels in collagen gel; format: cell-based; settings: Rattus norvegicus, 120 h; at 100 nM, five days of culture in serum-free medium; read-out: inhibition of formation of pseudovessels (vascular density)
Excerpt: Sections of thoracic aorta from 8- to 12-week old male Fischer 344 rats are immersed in a collagen type I gel according to the Nicosia and Ottinetti method (1990). After five days of culture in serum-free medium, the preparations are examined under a microscope and the formation of pseudovessels is quantified in terms of vascular density after digitization and image analysis.

[3] = test system: murine Lewis carcinoma cells (LLC); experiment: Invasion in vitro, Transwell filter coated with artificial extracellular matrix; format: cell-based; settings: Mus musculus, 24 h, medium with serum, read-out: inhibition of cellular invasion
Description: The tests of invasion are carried out according to the following procedure: murine Lewis carcinoma cells (LLC) are deposited on the top face of a Transwell filter coated with an artificial extracellular matrix and are cultured in medium with serum for 24 h. The cells are then exposed to the vital stain 3-[4,5-dimethylthiazol-2-yl]-2,5-diphenyltetrazolium bromide and they are removed from the top face of the filter. The formazan crystals present under the filter are solubilized in a concentrated mixture of sodium dodecyl sulfate and dimethylformamide. The absorption at 540 nm of the corresponding colored mixture is then used to indirectly quantify cellular invasion.

[4] = test system: guinea pig cartilage; experiment: Degradation of the cartilaginous matrix induced by IL-1β: degradation of collagen (OH-proline release); format: cell-based; settings: IL-1β (10 mg/ml) and plasminogen (30 μg/ml), 3 days; for inhibition at 1 µM: Cavia porcellus, 72 h, 10^-6 M, read-out: collagen % protection at 10^-6 M
Description: as §1
on the one hand, to the degradation of collagen: colorimetric assay according to the Grant technique (Grant R. A. Estimation of OH-proline by the autoanalyser, J. Clin. Path. 1964, 17, 685) of the OH-proline fraction released by the tissue brought into contact, for 3 days, with IL-1β ([…]) and of plasminogen (30 μg/ml),
as §2

[5] = test system: ovarian cancers; settings: Becket et al., DDT 1996; cited from earlier work

SMILES | inhibition at 30 µM [1] | inhibition at 0.1 µM [2] | inhibition at 1 µM [3] | inhibition at 1 µM [4] | antitumor activity in clinical trials [5] | proteoglycans % protection at 3 × 10^-5M ([1]; cartilage labeled with 35SO4, 30 µM) | collagen % protection at 10^-6 M ([4]; 1 µM)
COc1ccc(S(=O)(=O)N2Cc3occc3C[C@@H]2C(=O)NO)cc1 [Example 28, (5R)-6-(4-Methoxybenzenesulfonyl)-4,5,6,7-tetrahydrofuro[2,3-c]pyridine-5-(N-hydroxy)carboxamide] | 34% | 85% | 44% | 79% |  |  | 
CNC(=O)[C@H](Cc1ccccc1)NC(=O)[C@H](CC(C)C)[C@H](CSc1cccs1)C(=O)NO [BB94] |  |  |  |  | proved active on ovarian cancers |  | 
COc1ccc(S(=O)(=O)N2Cc3sccc3C[C@@H]2C(=O)NO)cc1 [Example 15, (5R)-6-(4-Methoxybenzenesulfonyl)-4,5,6,7-tetrahydro-thieno[2,3-c]pyridine-5-(N-hydroxy)carboxamide] | 60% |  |  | 98% |  |  | 
COc1ccc(S(=O)(=O)N2Cc3ccsc3C[C@@H]2C(=O)NO)cc1 [Example 1, (6R)-5-(4-Methoxybenzenesulfonyl)-4,5,6,7-tetrahydrothieno[3,2-c]pyridine-6-(N-hydroxy)carboxamide] | 45% | 87% | 45% | 98% |  |  | 
COc1ccc(S(=O)(=O)N2Cc3nc[nH]c3C[C@@H]2C(=O)NO)cc1 [Example 23, (6R)-5-(4-Methoxybenzenesulfonyl)-4,5,6,7-tetrahydro-imidazo[4,5-c]pyridine-6-(N-hydroxy)carboxamide Hydrochloride] | 24% |  |  | 88% |  |  | 
CCCCCCCC1c2[nH]c3ccccc3c2C[C@H](C(=O)NO)N1S(=O)(=O)c1ccc(OC)cc1 (single isomer, unassigned) [Example 7] |  |  |  |  |  | 100% | 47%
